# Test results from US20080070264A1, “Intracellular Signaling-Induced Ret-Independent Gdnf Receptor-Effected Morphological Changes” (JPMORGAN CHASE BANK N.A., priority 2003, published 2008).
# Experiments:
# MET [1] = target: T1, MET (Chlorocebus aethiops, UniProt Q2IBA6); assay: 125I-labelled GDNF and HGF binding, chemical crosslinking, anti-MET immunoprecipitation
# T1 construct: different combinations of the MET β-subunit (140 kDa), Met-αβ heterodimer (190 kDa) and HGF complexes; endogenous in cells; host or cells: COS7 cells (wild type for 125I-HGF; transfected with pc3-GFRα1/GFP for 125I-GDNF)
# Protocol: Binding of ^125I-GDNF to COS7 cells transfected with GFRα1, and ^125-HGF to wild-type COS7, followed by cross-linking with EDC together with sulfo-NHS. Inmunoprecipitates with anti-MET antibodies (IP-Met) were analysed by SDS-PAGE under reducing conditions. ^125I-HGF α subunit and proHGF are marked by arrows. ^125I-HGF/MET complexes are denoted by arrow heads. The results are representative of five independent experiments.
# GDNF and HGF were enzymatically iodinated with [^125I]NaI (Amersham Pharmacia Biotech) with lactoperoxidase to a specific activity of 100.000 cpm/ng as described (31). COS7 cells were transfected with pc3-GFRα1/GFP two days prior the assay. 2 nM of ^125I-GDNF or 1 nM of ^125I-HGF were allowed to bind to cell monolayers for 1-2 h on ice in binding buffer (DMEM/15 mM HEPES, pH 7.5; 0.2% BSA), washed, and chemically cross-linked for 30 min at room temperature using BS^3 ([Bis(sulfosuccinimidyl)suberate]), DSS ((Disulfosuccinimidyl)suberate), DSP (3,3-Dithio-bis-(sulfosuccinimidyl)propionate) or EDC ((1-Ethyl-3-[3-dimethylaminopropyl]carbodiimide Hydrochloride)) with sulfo-NHS (N-Hydroxysulfosuccinimide) (Pierce). The non-specific binding of GDNF was estimated by the amount of ^125I-GDNF binding to cells in the presence of 300 n M unlabeled GDNF. Cells were washed, lysed and immunoprecipitated with anti-MET antibodies as described. Gels were dried and analyzed by phosphorimaging in a BAS Reader 1800 (Fuji).
# wild-type MDCK cells [2] = assay: Branching tubule formation assay in 3-D collagen gel; type: cell-based, dog; settings: 3-D collagen gel
# Protocol: (§1) From the total amount of cysts in the field, the percentage of cysts with long branches was calculated. Only branches with lengths of more than two cyst diameters were counted.
# (§2) Trypsinized cells were mixed 1:3 with collagen type I solution and plated. MEM with 10% FCS was overlaid on the gels with or without GDNF (Cephalon Inc. or R&D Systems, Inc.) or 50 ng/ml HGF. Cells in collagen were cultured for 3 days; GDNF-containing medium was changed daily. For quantification, cells were cultured for 3 days, fixed by 3% glutaraldehyde in PBS and counted under a light microscope.
# (§3) To avoid the effect of possible contamination of GDNF preparation, recombinant GDNF from two different sources were tested. One tested GDNF was expressed in baculovirus-infected insect cells (Cephalon Inc.), the other was expressed in mouse myeloma cell line NSO (R&D Systems, Inc.).
# MET [3] = assay: MET phosphorylation in MDCK cells (immunoprecipitation, Western blotting); type: cell-based, dog
# Protocol: (§4) To detect MET activation, GFRα1- and RET/GFRα1-expressing MDCK or SHEP cells were starved overnight in MEM or RPMI 1640 with 1% FCS, respectively, and in serum-free medium for 2 h prior the induction. After 15 min incubation at 37° C. with GDNF (at indicated concentrations) or with 50 ng/ml HGF, cells were lysed as described. Cleared cell lysates were incubated with anti-MET antibodies (Santa Cruz Biotechnologies, Inc.) overnight at 4° C. Immunoprecipitates were collected with protein A-SEPHAROSE (Amersham Pharmacia Biotech), washed, separated by SDS-PAGE and transferred to HYBOND-ECL membranes. Membranes were immunoblotted with anti-phospho-tyrosine antibodies (Upstate Group Inc.) or anti-MET antibodies.
# Alternatively, 30 μg of protein was incubated overnight at 4° C. with 10 μl Immobilized Phospho-Tyrosine Monoclonal Antibodies (Cell Signalling, NEB). Immunocomplexes were washed and analysed as described.
# (§5) For all experiments, densitometry and quantifications were performed using TINA 2.0 program (Raytest, Straubenhardt, Germany).
# (§6) For the inhibition of MET, and Src activation, SHEP or GFRα1- and RET/GFRα1-expressing MDCK cells were starved as described above. 1 or […] of the inhibitor PP2 (Calbiochem) was added 30 min before induction by GDNF or HGF. DMSO (dimethyl sulfoxide) was added to the positive controls together with GDNF or HGF.
# wild-type MDCK cells [4] = settings: Stoker et al., 1987; cited from earlier work
# MET [5] = target: MET (Homo sapiens, UniProt P08581); settings: Villa-Moruzzi et al., 1993; cited from earlier work
# MET [6] = assay: MET phosphorylation in SHEP neuroblastoma cells; type: cell-based, human; settings: SHEP cells
# Protocol: FIG. 7B: SHEP cells were grown with GDNF (10 ng/ml (lanes 2-4) or 5 pg/ml (lanes 5-7)) or HGF (10 ng/ml (lanes 8-9)) in the presence of PP2 (1 μM (lanes 3 and 6) and 10 μM (lanes 4 and 7)). To exclude a possible cytotoxic effect of the solvent, DMSO was added to the controls. […] The numbers below the lane indicate the fold of induction of MET tyrosine kinase. The results are representative of three independent experiments.
# as §4, §5, §6
# [7] = system: GFRα1-expressing MDCK cells; assay: Branching tubule formation assay in 3-D collagen gel; type: cell-based, dog; settings: ligand 100 ng/ml; 3-D collagen gel
# Protocol: as §1
# (§7) FIG. 2C: Dose-dependence of GDNF-induced branching of GFRα1- and RET/GFRα1-expressing MDCK cells. GDNF concentrations are per ml (x-axis). Results are reported as fold of branching cysts count over the non-induced control. Means±standard errors of the mean of five to eight counted fields are shown. The results are representative of five (A and B) and three (C) independent experiments, p<0.001.
# as §2, §3
# [8] = system: RET/GFRα1-expressing MDCK cells; assay: as above; type: cell-based, dog; settings: ligand 100 ng/ml; 3-D collagen gel
# Protocol: as §1, §7, §2, §3
# [9] = GFRα1- and RET/GFRα1-expressing MDCK cells, data not shown
# T1 sequence (Q2IBA6 25-1381): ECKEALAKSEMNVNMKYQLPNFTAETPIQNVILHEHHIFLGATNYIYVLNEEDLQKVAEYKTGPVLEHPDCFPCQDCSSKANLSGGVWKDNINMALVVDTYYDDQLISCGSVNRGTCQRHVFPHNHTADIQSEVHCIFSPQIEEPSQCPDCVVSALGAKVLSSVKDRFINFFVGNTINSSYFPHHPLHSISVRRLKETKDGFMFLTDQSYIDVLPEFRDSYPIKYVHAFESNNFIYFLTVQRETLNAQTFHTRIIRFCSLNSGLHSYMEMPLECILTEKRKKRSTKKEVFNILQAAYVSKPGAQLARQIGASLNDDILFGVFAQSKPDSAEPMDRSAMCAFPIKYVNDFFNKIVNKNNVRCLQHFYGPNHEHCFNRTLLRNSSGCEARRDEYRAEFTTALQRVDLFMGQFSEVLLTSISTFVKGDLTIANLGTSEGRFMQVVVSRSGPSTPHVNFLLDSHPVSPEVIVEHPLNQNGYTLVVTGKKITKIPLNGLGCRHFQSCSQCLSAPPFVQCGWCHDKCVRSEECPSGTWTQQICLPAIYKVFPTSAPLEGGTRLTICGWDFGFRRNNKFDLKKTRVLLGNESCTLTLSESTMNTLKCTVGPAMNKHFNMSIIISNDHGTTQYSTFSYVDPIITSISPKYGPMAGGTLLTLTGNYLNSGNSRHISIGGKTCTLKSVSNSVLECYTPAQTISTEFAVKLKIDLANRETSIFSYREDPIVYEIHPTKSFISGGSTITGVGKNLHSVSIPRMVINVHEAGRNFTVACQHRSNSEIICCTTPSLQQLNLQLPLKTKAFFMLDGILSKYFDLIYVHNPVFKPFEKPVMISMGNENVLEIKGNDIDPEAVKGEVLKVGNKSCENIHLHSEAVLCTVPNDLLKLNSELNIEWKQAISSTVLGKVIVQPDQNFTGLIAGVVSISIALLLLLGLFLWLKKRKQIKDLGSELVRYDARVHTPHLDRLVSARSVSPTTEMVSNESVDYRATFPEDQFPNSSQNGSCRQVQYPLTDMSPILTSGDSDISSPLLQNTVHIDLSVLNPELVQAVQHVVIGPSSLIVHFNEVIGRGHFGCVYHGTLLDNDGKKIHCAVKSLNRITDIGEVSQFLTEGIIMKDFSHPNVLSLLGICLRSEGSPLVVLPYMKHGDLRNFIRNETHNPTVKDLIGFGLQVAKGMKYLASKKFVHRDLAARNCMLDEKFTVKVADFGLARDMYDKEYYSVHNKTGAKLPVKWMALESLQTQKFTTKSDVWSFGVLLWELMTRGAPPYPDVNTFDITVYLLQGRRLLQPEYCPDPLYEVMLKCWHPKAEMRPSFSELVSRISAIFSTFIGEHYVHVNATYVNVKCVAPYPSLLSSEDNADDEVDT
# Chain of MET (Homo sapiens, UniProt P08581) (P08581 25-1390): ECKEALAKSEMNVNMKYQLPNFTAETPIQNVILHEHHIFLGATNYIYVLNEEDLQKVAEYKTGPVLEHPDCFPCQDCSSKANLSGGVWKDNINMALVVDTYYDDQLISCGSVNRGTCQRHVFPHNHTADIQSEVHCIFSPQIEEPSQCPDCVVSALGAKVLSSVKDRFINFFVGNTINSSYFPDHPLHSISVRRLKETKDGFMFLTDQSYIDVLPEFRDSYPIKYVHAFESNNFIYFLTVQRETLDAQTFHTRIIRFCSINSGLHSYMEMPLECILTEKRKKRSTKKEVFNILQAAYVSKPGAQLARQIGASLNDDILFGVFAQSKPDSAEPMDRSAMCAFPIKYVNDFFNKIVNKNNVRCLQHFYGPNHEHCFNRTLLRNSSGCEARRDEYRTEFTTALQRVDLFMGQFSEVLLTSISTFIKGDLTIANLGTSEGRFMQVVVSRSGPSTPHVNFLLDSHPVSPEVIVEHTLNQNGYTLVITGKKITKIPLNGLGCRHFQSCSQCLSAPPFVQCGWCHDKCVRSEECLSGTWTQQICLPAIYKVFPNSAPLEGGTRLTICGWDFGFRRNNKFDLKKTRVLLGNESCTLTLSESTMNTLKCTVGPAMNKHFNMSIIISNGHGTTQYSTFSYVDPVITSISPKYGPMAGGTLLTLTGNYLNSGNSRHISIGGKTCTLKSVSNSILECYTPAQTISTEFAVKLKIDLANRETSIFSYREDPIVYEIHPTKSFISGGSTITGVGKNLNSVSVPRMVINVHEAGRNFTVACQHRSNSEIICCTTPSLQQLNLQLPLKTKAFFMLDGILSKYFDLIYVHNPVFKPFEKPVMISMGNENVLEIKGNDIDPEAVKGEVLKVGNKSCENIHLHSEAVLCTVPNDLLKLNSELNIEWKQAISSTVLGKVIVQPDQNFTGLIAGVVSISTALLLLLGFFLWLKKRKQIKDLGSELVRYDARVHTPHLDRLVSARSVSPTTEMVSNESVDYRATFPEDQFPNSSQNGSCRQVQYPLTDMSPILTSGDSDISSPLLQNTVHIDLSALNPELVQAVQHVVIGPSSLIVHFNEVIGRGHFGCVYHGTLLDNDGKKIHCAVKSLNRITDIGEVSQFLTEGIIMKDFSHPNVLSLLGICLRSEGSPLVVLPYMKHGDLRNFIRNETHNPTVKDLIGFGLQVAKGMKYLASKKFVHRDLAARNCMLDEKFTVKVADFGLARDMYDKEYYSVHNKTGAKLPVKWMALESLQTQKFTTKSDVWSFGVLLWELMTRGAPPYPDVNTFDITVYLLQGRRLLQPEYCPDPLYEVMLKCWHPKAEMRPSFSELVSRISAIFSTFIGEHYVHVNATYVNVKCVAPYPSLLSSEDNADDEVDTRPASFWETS
molecule,measurement,setting,value
^125I-HGF: HGF enzymatically iodinated with [125I]NaI with lactoperoxidase [reference compound],cross-linked complexes with MET,"MET [1]; COS7 cells, reducing conditions, positive control","approximately 200 kDa, 250 kDa and 340 kDa complexes"
HGF: hepatocyte growth factor (Sigma); binds to and activates MET receptor tyrosine kinase,branching tubule formation,wild-type MDCK cells [2]; HGF 50 ng/ml,only branch on exposure to HGF
same,MET phosphorylation,MET [3]; mock-transfected MDCK cells,only HGF phosphorylated MET
same,chemotaxis,wild-type MDCK cells [4],induces chemotaxis
same,concentration at which MET is saturated,MET [5],0.5 nM
"CC(C)(C)n1nc(-c2ccc(Cl)cc2)c2c(N)ncnc21 [PP2, reference compound]",effect on GDNF-induced MET activation,MET [3]; [9],inhibited
same,effect on HGF-induced MET phosphorylation,MET [3]; [9],but not the HGF-induced MET phosphorylation
same,effect on GDNF-dependent phosphorylation of MET,MET [6]; PP2 1 μM,strongly reduced
same,effect on HGF-induced MET phosphorylation,MET [6],did not affect
"^125I-GDNF: GDNF enzymatically iodinated with [125I]NaI with lactoperoxidase (protein, UniProt P39905 78-211, looked up, 125I label, GDNF enzymatically iodinated with [125I]NaI with lactoperoxidase) Glial cell line-derived …: SPDKQMAVLPRRERNRQAAAANPENSRGKGRRGQRGKNRGCVLTAIHLNVTDLGLGYETKEELIFRYCSGSCDAAETTYDKILKNLSRNRRLVSDKVGQACCRPIAFDDDLSFLDDNLVYHILRKHSAKRCGCI",cross-linked complexes with MET,"MET [1]; GFRα1-expressing MDCK, SHEP or COS7 cells, and NIH 3T3 cells transiently transfected with GFRα1, EDC with sulfo-NHS, BS3, DSS, DSP",No high molecular weight complexes were revealed
"PSPN: persephin, the ligand for GFRα4, not known to interact with GFRα1 (protein, UniProt O60542 22-156, looked up) Persephin: WGPDARGVPVADGEFSSEQVAKAGGTWLGTHRPLARLRRALSGPCQLWSLTLSVAELGLGYASEEKVIFRYCAGSCPRGARTQHGLALARLQGQGRAHGGPCCRPTRYTDVAFLDDRHRWQRLPQLSAAACGCGG",branching tubule formation,[7],did not evoke branching
same,branching tubule formation,[8],did not evoke branching
same,branching tubule formation,wild-type MDCK cells [2]; ligand 100 ng/ml,does not induce branching
